Test results reported in ChEMBL document CHEMBL1132568, “Synthesis, pharmacological evaluation, and structure-activity relationship and quantitative structure-activity relationship studies on novel derivatives of 2,4-diamino-6,7-dimethoxyquinazoline alpha1-adrenoceptor antagonists” (J Med Chem, 1999).

Tests used:
[1] = target: 5-hydroxytryptamine receptor 2A (Rattus norvegicus, UniProt P14842); test: Inhibitory concentration against 5-hydroxytryptamine 2A receptor (Inactive at >1000 nM concentration)
[2] = target: T1, 5-hydroxytryptamine receptor 1A (Rattus norvegicus, UniProt P19327); test: Inhibitory concentration against 5-hydroxytryptamine 1A receptor (Inactive at >1000 nM concentration)
T1 sequence (P19327 whole entry): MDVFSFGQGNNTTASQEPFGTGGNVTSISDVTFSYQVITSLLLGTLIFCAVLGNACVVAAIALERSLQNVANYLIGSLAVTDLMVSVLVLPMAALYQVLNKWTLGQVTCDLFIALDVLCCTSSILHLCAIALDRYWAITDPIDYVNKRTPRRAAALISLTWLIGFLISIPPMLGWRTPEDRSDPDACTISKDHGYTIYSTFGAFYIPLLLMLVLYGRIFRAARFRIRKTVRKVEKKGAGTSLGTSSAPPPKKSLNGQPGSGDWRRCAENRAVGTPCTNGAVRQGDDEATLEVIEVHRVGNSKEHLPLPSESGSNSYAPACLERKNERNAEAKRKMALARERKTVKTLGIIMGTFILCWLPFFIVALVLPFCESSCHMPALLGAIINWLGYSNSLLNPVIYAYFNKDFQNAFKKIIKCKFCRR

[3] = target: T2, Adrenergic receptor alpha-2 (Rattus norvegicus, UniProt P22086+P19328+P22909); test: Inhibitory concentration against Alpha-2 adrenergic receptor; type: protein assay
T2 sequence (P22086 whole entry): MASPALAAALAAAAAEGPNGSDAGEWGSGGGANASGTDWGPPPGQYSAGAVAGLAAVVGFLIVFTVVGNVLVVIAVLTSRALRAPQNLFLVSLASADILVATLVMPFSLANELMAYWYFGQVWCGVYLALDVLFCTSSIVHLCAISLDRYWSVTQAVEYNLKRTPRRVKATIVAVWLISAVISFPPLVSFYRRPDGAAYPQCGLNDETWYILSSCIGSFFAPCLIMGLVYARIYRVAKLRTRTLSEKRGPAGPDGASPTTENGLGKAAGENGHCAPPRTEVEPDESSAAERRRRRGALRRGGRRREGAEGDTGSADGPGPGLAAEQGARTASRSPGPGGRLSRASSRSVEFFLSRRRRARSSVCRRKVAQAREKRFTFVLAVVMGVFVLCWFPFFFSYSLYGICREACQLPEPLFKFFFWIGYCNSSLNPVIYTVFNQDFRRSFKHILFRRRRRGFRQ
T2 sequence (P19328 whole entry): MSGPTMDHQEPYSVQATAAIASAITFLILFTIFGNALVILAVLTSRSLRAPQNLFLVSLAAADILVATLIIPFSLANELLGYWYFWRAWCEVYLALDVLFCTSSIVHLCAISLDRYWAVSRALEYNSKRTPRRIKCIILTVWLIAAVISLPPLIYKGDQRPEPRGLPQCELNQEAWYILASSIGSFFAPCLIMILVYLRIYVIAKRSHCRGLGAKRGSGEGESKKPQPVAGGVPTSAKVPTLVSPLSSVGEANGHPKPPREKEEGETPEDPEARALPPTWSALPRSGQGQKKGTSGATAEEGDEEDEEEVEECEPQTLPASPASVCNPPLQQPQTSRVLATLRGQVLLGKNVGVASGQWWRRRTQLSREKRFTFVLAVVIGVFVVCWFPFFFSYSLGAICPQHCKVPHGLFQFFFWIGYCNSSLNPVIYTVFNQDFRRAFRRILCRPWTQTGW
T2 sequence (P22909 whole entry): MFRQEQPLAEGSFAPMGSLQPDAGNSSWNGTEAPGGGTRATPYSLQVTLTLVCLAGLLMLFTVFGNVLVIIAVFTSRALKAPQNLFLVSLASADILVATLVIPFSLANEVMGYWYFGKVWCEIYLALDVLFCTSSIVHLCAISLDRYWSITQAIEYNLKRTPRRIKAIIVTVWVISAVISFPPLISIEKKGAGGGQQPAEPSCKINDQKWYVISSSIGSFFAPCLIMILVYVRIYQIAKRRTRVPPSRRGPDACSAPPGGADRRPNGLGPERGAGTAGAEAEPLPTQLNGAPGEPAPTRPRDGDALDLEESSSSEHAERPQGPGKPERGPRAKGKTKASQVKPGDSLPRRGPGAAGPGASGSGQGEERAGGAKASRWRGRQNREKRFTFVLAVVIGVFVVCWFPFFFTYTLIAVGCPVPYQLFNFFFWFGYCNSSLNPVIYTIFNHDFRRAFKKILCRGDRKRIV

D(2) dopamine receptor = D(2) dopamine receptor (Rattus norvegicus, UniProt P61169); test: Inhibitory concentration against Dopamine receptor D2 (Inactive at >1000 nM concentration)
[4] = target: T3, Adrenergic receptor alpha-1 (Rattus norvegicus, UniProt P15823+P23944+P43140); test: Inhibition of Alpha-1 adrenergic receptor in rat cortex membrane; type: cell membranes
T3 sequence (P15823 whole entry): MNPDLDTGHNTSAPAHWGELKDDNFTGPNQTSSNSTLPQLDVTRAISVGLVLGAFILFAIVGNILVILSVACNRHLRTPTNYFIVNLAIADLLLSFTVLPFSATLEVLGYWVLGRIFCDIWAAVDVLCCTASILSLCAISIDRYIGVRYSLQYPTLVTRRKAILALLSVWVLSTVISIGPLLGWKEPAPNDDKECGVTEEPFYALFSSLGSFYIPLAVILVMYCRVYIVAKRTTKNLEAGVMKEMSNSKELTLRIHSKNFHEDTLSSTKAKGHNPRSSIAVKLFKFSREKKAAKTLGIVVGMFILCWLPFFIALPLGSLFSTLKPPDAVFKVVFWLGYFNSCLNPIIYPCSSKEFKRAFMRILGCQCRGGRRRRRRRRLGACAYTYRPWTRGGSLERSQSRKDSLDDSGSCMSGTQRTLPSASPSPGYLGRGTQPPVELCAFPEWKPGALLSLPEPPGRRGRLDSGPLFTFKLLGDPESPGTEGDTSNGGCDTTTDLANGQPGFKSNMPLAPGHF
T3 sequence (P23944 whole entry): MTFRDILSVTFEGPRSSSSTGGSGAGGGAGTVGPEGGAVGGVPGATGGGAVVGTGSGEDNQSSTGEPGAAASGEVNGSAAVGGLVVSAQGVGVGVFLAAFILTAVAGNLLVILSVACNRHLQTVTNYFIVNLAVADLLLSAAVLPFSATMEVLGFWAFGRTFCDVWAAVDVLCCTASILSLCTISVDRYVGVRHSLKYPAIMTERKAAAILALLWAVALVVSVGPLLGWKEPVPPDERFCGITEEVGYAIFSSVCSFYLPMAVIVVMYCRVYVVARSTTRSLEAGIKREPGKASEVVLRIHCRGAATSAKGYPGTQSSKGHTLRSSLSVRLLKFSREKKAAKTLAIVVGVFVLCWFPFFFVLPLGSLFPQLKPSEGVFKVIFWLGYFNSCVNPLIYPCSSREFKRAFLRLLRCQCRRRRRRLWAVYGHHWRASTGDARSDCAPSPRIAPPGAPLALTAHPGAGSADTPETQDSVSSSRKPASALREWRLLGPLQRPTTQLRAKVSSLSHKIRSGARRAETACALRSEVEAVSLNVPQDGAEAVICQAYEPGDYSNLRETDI
T3 sequence (P43140 whole entry): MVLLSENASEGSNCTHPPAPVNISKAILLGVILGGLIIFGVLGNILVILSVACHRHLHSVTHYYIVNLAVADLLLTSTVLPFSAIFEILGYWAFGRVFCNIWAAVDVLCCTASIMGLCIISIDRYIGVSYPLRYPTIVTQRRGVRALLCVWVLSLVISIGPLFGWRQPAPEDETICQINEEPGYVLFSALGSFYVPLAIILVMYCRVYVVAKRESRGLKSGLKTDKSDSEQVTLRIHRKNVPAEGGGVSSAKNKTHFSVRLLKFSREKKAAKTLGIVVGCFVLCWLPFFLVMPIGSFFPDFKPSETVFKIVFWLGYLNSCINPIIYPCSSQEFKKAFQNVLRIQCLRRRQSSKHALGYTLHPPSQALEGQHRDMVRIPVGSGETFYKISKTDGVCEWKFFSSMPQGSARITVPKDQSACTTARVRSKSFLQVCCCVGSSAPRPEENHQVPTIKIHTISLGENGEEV

[5] = target: T4, Alpha-1A adrenergic receptor (Rattus norvegicus, UniProt P43140); test: The binding affinity towards Alpha-1A adrenergic receptor in the COS cell line.; type: cell-based
T4 sequence (P43140 whole entry): T3 sequence (P43140 whole entry)

Canis familiaris [6] = test: In vivo effect on urethral contractility (UP) of dog after intravenous administration.; type: functional, Canis lupus familiaris, Urethra
Canis familiaris [7] = test: In vivo hypotensive effect(DBP) in dog after intravenous administration.; type: functional, Canis lupus familiaris

Chain of 5-hydroxytryptamine receptor 2A (P14842 whole entry): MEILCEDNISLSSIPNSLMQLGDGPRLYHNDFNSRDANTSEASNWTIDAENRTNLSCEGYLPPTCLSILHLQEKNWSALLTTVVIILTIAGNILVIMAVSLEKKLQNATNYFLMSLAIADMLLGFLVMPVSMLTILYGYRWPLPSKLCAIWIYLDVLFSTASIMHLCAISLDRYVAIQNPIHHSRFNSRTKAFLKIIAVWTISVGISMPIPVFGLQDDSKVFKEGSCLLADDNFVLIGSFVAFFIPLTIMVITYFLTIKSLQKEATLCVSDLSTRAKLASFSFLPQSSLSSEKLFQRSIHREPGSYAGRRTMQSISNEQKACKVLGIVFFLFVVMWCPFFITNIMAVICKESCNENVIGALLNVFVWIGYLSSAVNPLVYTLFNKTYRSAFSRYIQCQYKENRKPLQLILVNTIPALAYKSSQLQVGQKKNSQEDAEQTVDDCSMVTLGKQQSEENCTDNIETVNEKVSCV
Chain of D(2) dopamine receptor (P61169 whole entry): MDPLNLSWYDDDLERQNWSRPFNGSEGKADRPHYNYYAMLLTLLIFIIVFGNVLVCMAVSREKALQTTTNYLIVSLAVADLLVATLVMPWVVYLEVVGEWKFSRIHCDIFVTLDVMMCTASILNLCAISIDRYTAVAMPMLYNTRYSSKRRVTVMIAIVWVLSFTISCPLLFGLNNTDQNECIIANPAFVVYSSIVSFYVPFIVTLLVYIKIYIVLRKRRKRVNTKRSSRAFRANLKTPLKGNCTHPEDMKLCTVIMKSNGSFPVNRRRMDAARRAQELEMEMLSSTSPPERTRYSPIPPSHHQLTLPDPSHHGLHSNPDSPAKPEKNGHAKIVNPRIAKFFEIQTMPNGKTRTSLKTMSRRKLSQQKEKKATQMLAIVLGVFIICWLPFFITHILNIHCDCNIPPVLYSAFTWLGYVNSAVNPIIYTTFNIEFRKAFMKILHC

Structure (SMILES) | IC50 [1] [µM] | IC50 [2] [µM] | IC50 [3] [µM] | IC50 (D(2) dopamine receptor) [µM] | IC50 [4] [µM] | Ki [5] [µM] | ED50 (Canis familiaris [6]) [mg/kg] | ED25 (Canis familiaris [7]) [mg/kg]
COc1cc2nc(N3CCNCC3)nc(N)c2cc1OC | > 1 | > 1 | > 1 | > 1 | 0.34 |  |  | 
COc1cc2nc(N3CCN(C(=O)c4ccccc4)CC3)nc(N)c2cc1OC | > 1 | > 1 | > 1 | > 1 | 0.0046 |  |  | 
COc1cc2nc(N3CCN(C(=O)C(C)(C)C)CC3)nc(N)c2cc1OC | > 1 | > 1 | > 1 | > 1 | 0.34 |  |  | 
COc1cc2nc(N3CCC(c4ccccc4)(c4ccccc4)CC3)nc(N)c2cc1OC | > 1 | > 1 | > 1 | > 1 | 0.259 |  |  | 
COc1cc2nc(N(C)CCC(c3ccccc3)c3ccccc3)nc(N)c2cc1OC | > 1 | > 1 | > 1 | > 1 | 0.085 |  |  | 
COc1cc2nc(N[C@H](C)Cc3ccc(OC)c(S(N)(=O)=O)c3)nc(N)c2cc1OC | > 1 | > 1 | > 1 | > 1 | 3.14 |  |  | 
COc1cc2nc(N3CC[N+]([O-])(Cc4ccccc4)CC3)nc(N)c2cc1OC | > 1 | > 1 | > 1 | > 1 | > 1 |  |  | 
COc1cc2nc(N3CCN(C(c4ccccc4)c4ccccc4)CC3)nc(N)c2cc1OC | > 1 | > 1 | > 1 | > 1 | 0.04 |  |  | 
COc1cc2nc(N3CCN(C(C)=O)CC3)nc(N)c2cc1OC | > 1 | > 1 | > 1 | > 1 | 0.045 |  |  | 
COc1cc2nc(N(C)Cc3ccccc3)nc(N)c2cc1OC | > 1 | > 1 | > 1 | > 1 | 0.07 |  |  | 
COc1cc2nc(N3CCN(C(C)=O)CC3)nc(NC(C)=O)c2cc1OC | > 1 | > 1 | > 1 | > 1 | 5.08 |  |  | 
COc1cc2nc(N3CCc4ccccc4C3)nc(N)c2cc1OC | > 1 | > 1 | > 1 | > 1 | 0.0041 |  |  | 
COc1cc2nc(N3CCN(C(=O)C(C)(C)Oc4ccccc4OC)CC3)nc(N)c2cc1OC | > 1 | > 1 | > 1 | > 1 | 0.049 |  |  | 
COc1cc2nc(N3CCN(C(=O)COc4c(OC)cccc4OC)CC3)nc(N)c2cc1OC | > 1 | > 1 | > 1 | > 1 | 0.006 | 0.0362 |  | 
COc1cc2nc(N3CCN(OCc4ccccc4)CC3)nc(N)c2cc1OC | > 1 | > 1 | > 1 | > 1 | 0.111 |  |  | 
COc1cc2nc(N3CCN(C(=O)C(c4ccccc4)c4ccccc4)CC3)nc(N)c2cc1OC | > 1 | > 1 | > 1 | > 1 | 0.0032 |  |  | 
COc1cc2nc(N3CCN(Cc4ccccc4)CC3)nc(N)c2cc1OC | > 1 | > 1 | > 1 | > 1 | 0.032 |  |  | 
COc1cc2nc(N3CCc4c(ccc5ccccc45)C3)nc(N)c2cc1OC | > 1 | > 1 | > 1 | > 1 | 0.0016 |  |  | 
COc1cc2c(cc1OC)CN(c1nc(N)c3cc(OC)c(OC)cc3n1)CC2 | > 1 | > 1 | > 1 | > 1 | 0.0002 |  |  | 
COc1cc2nc(N3CCN(C(=O)COc4c(OC)cccc4C(C)C)CC3)nc(N)c2cc1OC | > 1 | > 1 | > 1 | > 1 | 0.004 | 0.0075 | 0.065 | 0.183
COc1cc2nc(N3CCN(C(=O)C(C)(C)Oc4c(OC)cccc4C(C)C)CC3)nc(N)c2cc1OC | > 1 | > 1 | > 1 | > 1 | 1.18 |  |  | 
